From PMC10926604, “Discovery of a novel small molecule as CD47/SIRPα and PD-1/PD-L1 dual inhibitor for cancer immunotherapy” (Cell Communication and Signaling : CCS, 2024)
“Also recorded” adds a separate entry of the source.

How the values were obtained:
human SIRPα (hSIRPα) = biological target: T1, human SIRPα (hSIRPα) (Homo sapiens, UniProt P78324); test: MST binding assay, human SIRPα; conditions: SIRPα-IgV-His, read-out: dissociation constant (KD) for human SIRPα
T1 construct: SIPRα-IgV-His (human: SIA-H5225, mouse: SIA-M52H4, ACRO Biosystems); His; purchased ACRO Biosystems SIA-H5225
T1 sequence (P78324 32-137 limits assumed): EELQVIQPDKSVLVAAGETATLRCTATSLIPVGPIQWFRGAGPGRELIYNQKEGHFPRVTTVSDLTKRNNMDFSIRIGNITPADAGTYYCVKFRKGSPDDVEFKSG
Protocol: SIPRα-IgV-His (human: SIA-H5225, mouse: SIA-M52H4, ACRO Biosystems) and PD-L1-IgV-His (human: 10,084-H08H, mouse: 50,010-M08H, Sino Biological) proteins were labeled with Red-NHS647 dye (NT-MO-L001, NanoTemper) for subsequent experiments. SMC18 (C385-0664, ChemDiv) was serially diluted using PBST (from 0.0191 μM to 200 μM) and mixed with the labeled proteins. The samples were then aspirated using standard capillaries and assayed by MST instrument (Monolith NT.115, NanoTemper), and the results were analyzed using the analytical software Monolith NT.115 system to calculate the dissociation constant (KD) values.

human CD47/SIRPα = biological target: T2, human CD47/SIRPα (Homo sapiens, UniProt P78324); test: Cell-based blocking assay, human CD47/SIRPα; conditions: CHO-K1-hCD47 cells, SIRPα-Fc, flow cytometry; read-out: IC50 for blocking human CD47/SIRPα interaction
T2 construct: purchased ACRO Biosystems SIA-H5251; host or cells: CHO-K1-hCD47 cells carry the partner (lentiviral transfection)
T2 sequence (P78324 31-370 limits assumed): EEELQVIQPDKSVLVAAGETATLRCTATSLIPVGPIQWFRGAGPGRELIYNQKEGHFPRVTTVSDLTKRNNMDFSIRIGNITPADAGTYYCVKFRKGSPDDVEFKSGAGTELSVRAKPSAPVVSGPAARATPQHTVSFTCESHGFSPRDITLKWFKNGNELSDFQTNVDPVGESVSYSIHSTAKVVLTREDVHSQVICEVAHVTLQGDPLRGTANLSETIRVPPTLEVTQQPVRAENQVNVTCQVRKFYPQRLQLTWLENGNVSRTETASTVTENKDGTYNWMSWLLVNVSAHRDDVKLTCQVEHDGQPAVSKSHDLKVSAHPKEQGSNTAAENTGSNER
Protocol: The CHO-K1 cell line with stable expression of CD47 and PD-1 was constructed previously by our group. SMC18 was serially diluted using PBS 7.2 (containing 1% DMSO) and incubated with 100 ng of SIRPα-Fc protein (human: SIA-H5251, mouse: SIA-M5258, ACRO Biosystems) and 50 ng of PD-L1-Fc protein (human: 10,084-H02H, mouse: 50,010-M02H, Sino Biological) on ice for 30 min. The mixture was then added to the corresponding CHO-K1-CD47 or CHO-K1-PD-1 cells and further incubated on ice for 30 min. Afterward, PE-conjugated anti-human IgG (Fc) antibody (A18272, eBioscience) was added. The mean fluorescence intensity (MFI) of the cells was detected using flow cytometry (BD FACSCalibur) and the blocking efficiency was calculated.

MC38 cells = test: MTT assay, MC38 cells; type: cell-based, mouse; conditions: 100 µM; 24 h, 48 h, 72 h
Protocol: (§1) MC38 and B16-OVA cells were seeded into 96-well plates at a density of 3,000 cells per well, respectively and allowed to adhere overnight. SMC18 was added to the cells and incubated for 24 h, 48 h and 72 h, respectively. Cell viability was measured by adding MTT (3-(4, 5-dimethyl-2-thiazolyl)-2,5-diphenyl-2-H-tetrazolium bromide, 298–93-1, Sigma) solution and incubating for 4 h. The cells were then lysed by shaking with DMSO. The absorbance values at 490 nm were measured using a multi-mode microplate reader (Molecular Devices, SpectraMax iD5).
(§2) Fig S3. The Effect of SMC18 on Tumor Cell Proliferation in vitro. MC38 cells (3000 cells/well) and B16-OVA cells (3000 cells/well) were seeded in flat-bottomed 96-well plates and allowed to adhere overnight. Subsequently, the cells were starved for 8 hours in serum-free medium. SMC18 was diluted in complete culture medium and added to the wells, following which the cells were incubated for 24 h, 48 h, and 72 h. After the designated incubation periods, 20 μL of MTT solution was added to each well. Four hours later, the supernatant was aspirated, and 150 μL of DMSO was added to each well to dissolve the MTT formazan product. The plates were then shaken for 10 minutes, and absorbance was measured at 490 nm using a microplate reader.

B16-OVA cells = test: MTT assay, B16-OVA cells; type: cell-based, mouse; conditions: 100 µM; 24 h, 48 h, 72 h
Protocol: as §1, §2

[1] = system: GFP+ MC38 cells phagocytosed by BMDMs; test: Phagocytosis assay, BMDMs with GFP+ MC38 cells; type: cell-based, mouse; conditions: 50 μM
Protocol: (§3) Bone marrow-derived macrophage cells (BMDMs) from C57BL/6N mice were isolated and induced with 20 ng/mL of mouse granulocyte–macrophage colony-stimulating factor (GM-CSF, 315–03, Peprotech) for 7 days, with regular medium changes and cytokine replenishment during cell induction. The cells were then harvested for subsequent experiments. Subsequently, the cells were treated with SMC18 at a concentration of 50 μΜ. The anti-CD47 antibody (clone miap301, 16–0471-81, Invitrogen) was employed as a positive control with 20 µg/mL. Phagocytosis was measured by the co-culture of macrophages with green fluorescent protein (GFP^+) tumor cells (GFP^+ MC38 and GFP^+ B16-OVA cells) at a ratio of 1:4 in serum-free medium at 37 °C for 4 h. The cells were harvested and identified by flow cytometry using anti-F4/80 antibody (BM8, 17–4801-82, eBioscience). The phagocytosis rate was calculated as the percentage F4/80^+GFP^+ cells relative to the total number of total F4/80^+ cells. For confocal microscopy detection, BMDMs were labelled with DiR dye (R-22070, Beyotime) at a final concentration of 200 μM, followed by a 30-min staining period. After washing with PBS three times, the cells were cultured with DMEM medium devoid of serum for 2 h. Subsequently, MC38-EGFP cells were seeded onto BMDMs at a density of 4 × 10^6 cells per well. […]

[2] = system: GFP+ B16-OVA cells phagocytosed by BMDMs; test: Phagocytosis assay, BMDMs with GFP+ B16-OVA cells; type: cell-based, mouse; conditions: 50 μM, flow cytometry
Protocol: as §3

[3] = Mouse blood indicators and H&E staining of major organs; type: in vivo; conditions: for ALT: NS 45.13 ± 1.55; for AST: NS 187.4 ± 25.5
Protocol: Peripheral blood samples were collected from mice that received intravenous injections of SMC18 (2 or 6 mg/kg) for 2 weeks. The samples were analyzed for whole blood hematological test to detect the indicators of anemia and liver injury. For H&E staining analysis, tumors and the major organs (heart, liver, spleen, lung and kidney) were harvested from tumor-bearing mice. The tissues were then fixed with 4.0% paraformaldehyde for paraffin embedding and processed by H&E staining for histological evaluation. Immunostaining of tumor tissue sections was conducted utilizing anti-mouse CD8α andtibody (53–6.7, eBioscience).

Cc1cc(C)cc(NS(=O)(=O)c2ccc3[nH]cc(C(=O)NCCc4ccccc4)c(=O)c3c2)c1 [SMC18]
Kd (human SIRPα (hSIRPα)): 0.55 ± 0.1 µM | IC50 (human CD47/SIRPα): 17.8 ± 8.2 µM | toxicity to MC38 cells (MTT) (MC38 cells): non-toxic | toxicity towards B16-OVA cells (MTT) (B16-OVA cells): only mild toxicity | phagocytosis of MC38 by BMDMs (flow cytometry) ([1]; 4 h): significantly increased | macrophage phagocytosis of MC38 cells (confocal) ([1]; DiR-labelled BMDMs, MC38-EGFP, vs control group): significantly enhanced | phagocytosis of B16-OVA cells by BMDMs [2]: enhances; also recorded: significantly increased | ALT ([3]; 2 mg/kg daily for 14 days): 56.57 ± 13.3 U/L | AST ([3]; 2 mg/kg daily for 14 days): 196.4 ± 20.7 U/L | ALT ([3]; 6 mg/kg daily for 14 days): 46.83 ± 7.74 U/L | AST ([3]; 6 mg/kg daily for 14 days): 191.1 ± 23.3 U/L | content of alanine aminotransferase (ALT) vs control group ([3]; 2 or 6 mg/kg daily for 14 days): no significant differences | content of aspartate aminotransferase (AST) vs control group ([3]; 2 or 6 mg/kg daily for 14 days): no significant differences | levels of erythrocytes (RBC count) vs control group ([3]; 2 or 6 mg/kg daily for 14 days): No significant differences | levels of hemoglobin vs control group ([3]; 2 or 6 mg/kg daily for 14 days): No significant differences | H&E staining of major organs (heart, liver, spleen, lung, kidney) ([3]; tumor-bearing mice treated with SMC18): no significant damage
